From patent US3968207A, “Method of controlling fleas and ticks on cats and dogs” (priority 1975, dated 1976)

How the values were obtained:
Format in all cases: in vivo
[1] = test system: Boophilus microplus larvae; experiment: Control of acarina larvae in pipettes (simulated spray); conditions: Rhipicephalus microplus, 48 hours, read-out: Activity (larval mortality)
Method: Boophilus is a one-host tick which uses only one host animal during its three parasitic life stages (larvae, nymph, adult). […] Twenty larvae are enclosed in a pipette sealed at one end with a gauze material, and the "solution" containing the test compound is then drawn through the pipette with a vacuum hose, simulating a spray system. The open end of the pipette is sealed with plastiline and the ticks held for 48 hours at room temperature and 80+% humidity. Activity is based on mortality. The test compound was 100%, 100% and 0% active at 0.01%, 0.001% and 0.0001% (w/w), respectively.

[2] = test system: Dermacentor variabilis; experiment: Tick control on dogs fed medicated diet, Table V; conditions: for % Control of Adult Engorged Female Ticks D.V.: dogs
Method: (§1) Five groups of two mongrel dogs each were fed a daily dose of 0, 6.25, 25, 100 or 400 mg. O,O,O',O'-tetramethyl O,O'-thiodi-p-phenylene phosphorothioate/kg. body weight in Agway Big Red Dog Meal. Dogs eating less than 75% of the food were given a corrected dose by gelatin capsule to equal 100%. Medication began 1 day after infesting each dog with 100 adult Ctenocephalides felis and 2 days before infesting each dog with 10 Dermacentor variabiles and 10 Rhipicephalus sanguineus adults.

[3] = test system: Rhipicephalus sanguineus; experiment: Tick control on dogs fed medicated diet, Table V; conditions: for % Control of Adult Engorged Female Ticks R.S.: dogs
Method: as §1

[4] = test system: Ctenocephalides felis; experiment: Topical (spray or 2% dust) flea control on dogs, Table I
Method: Dogs used in testing were placed in raised cages with steel grate floors. Three days prior to treatment, 100 fleas were placed on each dog. On the day of treatment each cage was lined with absorbent brown paper. Dogs were treated at various dose levels (1-60 mg./kg.) applied topically using a 2% active ingredient dust formulation, or a dilute aqueous dispersion applied as a spray. Activity was determined by the number of dead fleas recovered from the brown paper, and a systematic examination of the test animal in relation to infested, untreated control dogs.
Residual activity of the initial application of the test compound was done by experimentally reinfesting each dog at 7-day intervals with an additional 100 adult C. felis. Activity was determined as described above.

[5] = test system: fleas and ticks; experiment: Control of fleas and ticks (general statement); conditions: topically and systemically
[6] = test system: Ctenocephalides felis; experiment: Flea control on dogs given oral doses (gelatin capsules), Table III; design: key to Flea Control: 100% Control; PC: Partial Control; NC: No Control
Method: Five groups of two mongrel dogs each were dosed daily with 0, 0.78, 3.1, 12.5 or 50 mg. O,O,O',O'-tetramethyl O,O'-thiodi-p-phenylene phosphorothioate/kg. body weight in gelatin capsules for 10 days. Medication began three days after infestations with 100 adult Ctenocephalides felis. […] Purina High Protein Dog Meal was fed once daily for the duration of the experiment. Water was provided ad libitum. The following table summarizes the results of the test.

[7] = 400 mg/kg in feed, end of experiment (8 days)

Structure (SMILES): COP(=S)(OC)Oc1ccc(Sc2ccc(OP(=S)(OC)OC)cc2)cc1 [O,O,O',O'-tetramethyl O,O'-thiodi-p-phenylene phosphorothioate]
- mortality at 0.0001 % ([1]; 0.0001% (w/w)): 0%
- mortality at 0.001 % ([1]; 0.001% (w/w)): 100%
- mortality at 0.01 % ([1]; 0.01% (w/w)): 100%
- effect against adult ticks ([2]; 6.25 mg/kg in feed): ineffective
- effect against adult ticks ([2]; 25 mg/kg in feed): ineffective
- condition of ticks ([2]; 100 mg/kg in feed, some ticks on one dog): discolored and stunted
- condition of adult ticks in capsules [2, 7]: either dead or moribund
- % Control of Adult Engorged Female Ticks D.V. ([2]; 6.25 mg/kg in feed): 0%
- % Control of Adult Engorged Female Ticks D.V. ([2]; 25 mg/kg in feed): 10%
- % Control of Adult Engorged Female Ticks D.V. ([2]; 100 mg/kg in feed): 30%
- % Control of Adult Engorged Female Ticks D.V. ([2]; 400 mg/kg in feed): 100%
- effect against adult ticks ([3]; 6.25 mg/kg in feed): ineffective
- effect against adult ticks ([3]; 25 mg/kg in feed): ineffective
- condition of ticks ([3]; 100 mg/kg in feed): engorged and detached normally
- condition of two female ticks on the ear of one dog ([3]; 400 mg/kg in feed, end of experiment): appeared normal, though not completely engorged
- condition of adult ticks in capsules [3, 7]: either dead or moribund
- % Control of Adult Engorged Female Ticks R.S. ([3]; 6.25 mg/kg in feed): 20%
- % Control of Adult Engorged Female Ticks R.S. ([3]; 25 mg/kg in feed): 0%
- % Control of Adult Engorged Female Ticks R.S. ([3]; 100 mg/kg in feed): 50%
- % Control of Adult Engorged Female Ticks R.S. ([3]; 400 mg/kg in feed): 100%
- Percent Activity ([4]; 2% dust 10.0 mg/kg, day 0): 100%
- Percent Activity ([4]; 2% dust 10.0 mg/kg, day 7): 100%
- Percent Activity ([4]; 2% dust 10.0 mg/kg, day 14): 100%
- Percent Activity ([4]; 2% dust 10.0 mg/kg, day 21): 100%
- Percent Activity ([4]; 2% dust 10.0 mg/kg, day 28): 80%
- Percent Activity ([4]; 2% dust 10.0 mg/kg, day 42): 0%
- Percent Activity ([4]; 2% dust 20.0 mg/kg, day 0): 100%
- Percent Activity ([4]; 2% dust 20.0 mg/kg, day 7): 100%
- Percent Activity ([4]; 2% dust 20.0 mg/kg, day 14): 100%
- Percent Activity ([4]; 2% dust 20.0 mg/kg, day 21): 100%
- Percent Activity ([4]; 2% dust 20.0 mg/kg, day 28): 100%
- Percent Activity ([4]; 2% dust 20.0 mg/kg, day 42): 0%
- Percent Activity ([4]; 2% dust 40.0 mg/kg, day 0): 100%
- Percent Activity ([4]; 2% dust 40.0 mg/kg, day 7): 100%
- Percent Activity ([4]; 2% dust 40.0 mg/kg, day 14): 100%
- Percent Activity ([4]; 2% dust 40.0 mg/kg, day 21): 100%
- Percent Activity ([4]; 2% dust 40.0 mg/kg, day 28): 100%
- Percent Activity ([4]; 2% dust 40.0 mg/kg, day 42): 0%
- Percent Activity ([4]; spray 1.25 mg/kg, day 0): 100%
- Percent Activity ([4]; spray 1.25 mg/kg, day 7): 100%
- Percent Activity ([4]; spray 1.25 mg/kg, day 14): 100%
- Percent Activity ([4]; spray 1.25 mg/kg, day 21): 100%
- Percent Activity ([4]; spray 1.25 mg/kg, day 25): 0%
- Percent Activity ([4]; spray 2.5 mg/kg, day 0): 100%
- Percent Activity ([4]; spray 2.5 mg/kg, day 7): 100%
- Percent Activity ([4]; spray 2.5 mg/kg, day 14): 100%
- Percent Activity ([4]; spray 2.5 mg/kg, day 21): 0%
- Percent Activity ([4]; spray 10.0 mg/kg, day 0): 100%
- Percent Activity ([4]; spray 10.0 mg/kg, day 7): 100%
- Percent Activity ([4]; spray 10.0 mg/kg, day 14): 100%
- Percent Activity ([4]; spray 10.0 mg/kg, day 21): 100%
- Percent Activity ([4]; spray 10.0 mg/kg, day 28): 10%
- controlling fleas and ticks [5]: highly effective
- flea activity ([6]; oral 0.78 mg/kg): no flea activity was observed
- Flea Control ([6]; oral 3.1 mg/kg daily, day 0): NC
- Flea Control ([6]; oral 3.1 mg/kg daily, day 1): NC
- Flea Control ([6]; oral 3.1 mg/kg daily, day 2): NC
- Flea Control ([6]; oral 3.1 mg/kg daily, day 3): PC
- Flea Control ([6]; oral 3.1 mg/kg daily, day 4): PC
- Flea Control ([6]; oral 3.1 mg/kg daily, day 7): 100 (100% Control)
- Flea Control ([6]; oral 3.1 mg/kg, both dogs, after 7 days): complete control
- Flea Control ([6]; oral 12.5 mg/kg daily, day 0): NC
- Flea Control ([6]; oral 12.5 mg/kg daily, day 2): PC
- Flea Control ([6]; oral 12.5 mg/kg daily, day 3): PC
- Flea Control ([6]; oral 12.5 mg/kg daily, day 4): PC
- Flea Control ([6]; oral 12.5 mg/kg daily, day 7): 100 (100% Control)
- Flea Control ([6]; oral 12.5 mg/kg, another dog, after 7 days): complete control
- Flea Control ([6]; oral 12.5 mg/kg, one dog, after 24 hours): complete control
- Flea Control ([6]; oral 50 mg/kg daily, day 0): NC
- Flea Control ([6]; oral 50 mg/kg daily, day 1): 100 (100% Control)
- Flea Control ([6]; oral 50 mg/kg, after 24 hours): complete flea control
- Flea Control ([6]; oral .78 mg/kg daily, day 0): NC
- Flea Control ([6]; oral .78 mg/kg daily, day 1): NC
- Flea Control ([6]; oral .78 mg/kg daily, day 2): NC
- Flea Control ([6]; oral .78 mg/kg daily, day 3): NC
- Flea Control ([6]; oral .78 mg/kg daily, day 4): NC
- Flea Control ([6]; oral .78 mg/kg daily, day 7): NC
- Flea Control ([6]; oral .78 mg/kg daily, day 8): NC
